IC50 data for 19 compounds are collected here from patent US20090306133A1, “New Acetyl Coenzyme A Carboxylase (ACC) Inhibitors And Uses In Treatments Of Obesity And Diabetes Mellitus - 087” (ASTRAZENECA AB, priority 2007, published 2009).

Experiment [1] deals with Human recombinant Acetyl-CoA Carboxylase 2 (ACC2) (Homo sapiens, UniProt O00763). Nature of the experiment: Assay Y: ACC2 inhibition, inorganic phosphate (Malachite Green). To be noted: Assay Y: room temperature, 3 hr, 15 min preincubation. Type of experiment: biochemical. In short, it runs like this: (§1)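 Enzyme preincubated with compound 15 min before substrate addition; reaction run 3 h, then phosphate detected with Malachite Green at 670 nm after 10 min at room temperature. Triplicate 10-point titrations; IC50 by non-linear four-parameter curve fitting.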
Sequence of Human recombinant Acetyl-CoA Carboxylase 2 (ACC2) (O00763 whole entry): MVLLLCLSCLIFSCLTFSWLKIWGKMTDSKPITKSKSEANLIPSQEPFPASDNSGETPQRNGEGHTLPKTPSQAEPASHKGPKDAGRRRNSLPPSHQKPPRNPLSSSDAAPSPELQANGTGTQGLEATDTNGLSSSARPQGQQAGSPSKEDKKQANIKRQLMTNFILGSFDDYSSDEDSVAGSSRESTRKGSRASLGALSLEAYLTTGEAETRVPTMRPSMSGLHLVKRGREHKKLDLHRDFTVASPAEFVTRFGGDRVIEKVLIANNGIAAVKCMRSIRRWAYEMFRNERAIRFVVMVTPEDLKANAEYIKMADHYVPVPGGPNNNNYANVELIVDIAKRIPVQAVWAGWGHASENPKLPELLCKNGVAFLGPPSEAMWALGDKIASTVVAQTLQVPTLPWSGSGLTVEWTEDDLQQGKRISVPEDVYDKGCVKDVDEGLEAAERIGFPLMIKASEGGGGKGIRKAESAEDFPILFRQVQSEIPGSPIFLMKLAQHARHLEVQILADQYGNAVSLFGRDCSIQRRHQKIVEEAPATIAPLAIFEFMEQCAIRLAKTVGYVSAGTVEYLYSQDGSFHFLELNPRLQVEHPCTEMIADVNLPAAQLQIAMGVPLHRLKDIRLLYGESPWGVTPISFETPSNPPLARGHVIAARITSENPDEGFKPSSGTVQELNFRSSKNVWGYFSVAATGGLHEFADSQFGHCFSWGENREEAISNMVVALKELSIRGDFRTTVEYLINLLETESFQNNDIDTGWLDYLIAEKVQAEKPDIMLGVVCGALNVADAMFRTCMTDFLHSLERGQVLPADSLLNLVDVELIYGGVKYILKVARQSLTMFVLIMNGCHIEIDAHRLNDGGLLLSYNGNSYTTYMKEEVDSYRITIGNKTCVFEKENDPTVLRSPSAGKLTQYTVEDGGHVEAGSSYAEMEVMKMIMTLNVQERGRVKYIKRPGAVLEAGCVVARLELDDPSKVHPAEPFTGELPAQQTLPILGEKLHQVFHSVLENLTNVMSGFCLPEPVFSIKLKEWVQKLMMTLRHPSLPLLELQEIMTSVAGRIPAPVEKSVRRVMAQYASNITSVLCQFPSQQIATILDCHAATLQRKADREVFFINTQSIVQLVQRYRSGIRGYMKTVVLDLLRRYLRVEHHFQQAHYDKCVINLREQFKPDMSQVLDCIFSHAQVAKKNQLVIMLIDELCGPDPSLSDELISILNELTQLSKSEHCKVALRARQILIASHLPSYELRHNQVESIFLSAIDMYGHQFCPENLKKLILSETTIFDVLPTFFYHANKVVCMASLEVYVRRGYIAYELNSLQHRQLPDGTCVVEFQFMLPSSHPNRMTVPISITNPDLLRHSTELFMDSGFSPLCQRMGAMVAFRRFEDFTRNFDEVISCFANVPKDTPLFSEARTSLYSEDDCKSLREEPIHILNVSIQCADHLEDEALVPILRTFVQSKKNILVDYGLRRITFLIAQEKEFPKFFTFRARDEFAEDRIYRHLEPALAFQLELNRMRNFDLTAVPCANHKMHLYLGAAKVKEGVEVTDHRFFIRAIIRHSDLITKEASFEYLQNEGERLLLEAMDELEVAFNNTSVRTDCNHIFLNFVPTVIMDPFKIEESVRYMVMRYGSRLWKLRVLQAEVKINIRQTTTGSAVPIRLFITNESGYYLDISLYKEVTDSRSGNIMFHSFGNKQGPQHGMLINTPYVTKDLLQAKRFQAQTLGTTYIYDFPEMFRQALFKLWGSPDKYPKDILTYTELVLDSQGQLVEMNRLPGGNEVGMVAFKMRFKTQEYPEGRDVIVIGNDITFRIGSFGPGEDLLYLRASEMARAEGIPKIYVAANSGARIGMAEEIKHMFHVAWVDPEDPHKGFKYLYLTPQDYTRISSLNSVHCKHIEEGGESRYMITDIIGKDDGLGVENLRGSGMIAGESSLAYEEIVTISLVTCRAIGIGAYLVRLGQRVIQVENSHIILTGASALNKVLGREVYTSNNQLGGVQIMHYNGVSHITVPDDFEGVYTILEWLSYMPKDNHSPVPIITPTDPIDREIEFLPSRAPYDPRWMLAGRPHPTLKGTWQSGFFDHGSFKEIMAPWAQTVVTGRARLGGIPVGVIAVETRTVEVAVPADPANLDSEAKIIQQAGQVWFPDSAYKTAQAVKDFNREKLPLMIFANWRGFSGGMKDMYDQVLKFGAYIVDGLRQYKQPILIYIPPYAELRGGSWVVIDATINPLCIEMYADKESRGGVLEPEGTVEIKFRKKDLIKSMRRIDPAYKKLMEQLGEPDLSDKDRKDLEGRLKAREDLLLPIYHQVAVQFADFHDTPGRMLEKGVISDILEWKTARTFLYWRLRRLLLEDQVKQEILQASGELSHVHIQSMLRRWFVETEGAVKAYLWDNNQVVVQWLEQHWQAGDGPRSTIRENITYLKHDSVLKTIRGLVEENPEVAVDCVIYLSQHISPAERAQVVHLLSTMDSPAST

Experiment [2] addresses Human recombinant Acetyl-CoA Carboxylase 1 (ACC1) (Homo sapiens, UniProt Q13085). The experiment in a line: Assay Y: ACC1 inhibition, inorganic phosphate (Malachite Green). Format: biochemical. To be noted: Assay Y: room temperature, 3 hr, 15 min preincubation. In short, it runs like this:
as §1

SMILES strings stand for the structures.

Regarding `CN1CCN(CCOc2cc(C(=O)NC[C@H]3CC[C@H](CNC(=O)OC(C)(C)C)CC3)c3ccccc3n2)CC1` [Example 182, tert-Butyl[(trans-4-{[({2-[2-(4-methylpiperazin-1-yl)ethoxy]quinolin-4-yl}carbonyl)amino]methyl}cyclohexyl)methyl]carbamate], the 50% inhibitory concentration (IC50) in experiment [1] came to 1760 nM; in experiment [2], 6430 nM.

For the compound `CN1CCN(c2ccc(-c3cc(C(=O)NC[C@H]4CC[C@H](CNC(=O)OC5CCOCC5)CC4)c4ccccc4n3)cn2)CC1` [Example 109, Tetrahydro-2H-pyran-4-yl [(trans-4-{[({2-[6-(4-methylpiperazin-1-yl)pyridin-3-yl]quinolin-4-yl}carbonyl)amino]methyl}cyclohexyl)methyl]carbamate], the figures for the IC50 in experiment [1] and in experiment [2] were 210 nM and 1710 nM, respectively.

Regarding `CC(C)(C)OC(=O)NC[C@H]1CC[C@H](CNC(=O)c2cc(-c3cccc(CNC(N)=O)c3)nc3ccccc23)CC1` [Example 99, tert-Butyl {[trans-4-({[(2-{3-[(carbamoylamino)methyl]phenyl}quinolin-4-yl)-carbonyl]amino}methyl)cyclohexyl]methyl}carbamate], the 50% inhibitory concentration (IC50) in experiment [1] worked out at 100 nM; in experiment [2] it was 780 nM.

As to `CC(C)(C)OC(=O)NC[C@H]1CC[C@H](CNC(=O)c2cc(-c3cccc(CC(=O)O)c3)nc3ccccc23)CC1` [Example 40, [3-(4-{[(trans-4-{[(tert-Butoxycarbonyl)amino]methyl}cyclohexyl)methyl]-carbamoyl}quinolin-2-yl)phenyl]acetic Acid], the IC50 in experiment [1] is 1000 nM; in experiment [2] it was 8640 nM.

As for `Cc1[nH]c(=O)ccc1-c1cc(C(=O)NC[C@H]2CC[C@H](CNC(=O)OC(C)(C)C)CC2)c2ccccc2n1` [Example 2, tert-Butyl ({trans-4-[({[2-(2-methyl-6-oxo-1,6-dihydropyridin-3-yl)quinolin-4-yl]carbonyl}amino)methyl]cyclohexyl}methyl)carbamate], the IC50 was 2960 nM in experiment [1] and greater than 20000 nM in experiment [2].

As to `CCCN(C[C@H]1CC[C@H](CNC(=O)OC(C)(C)C)CC1)S(=O)(=O)c1ccc2ccccc2c1` [Example 87, tert-Butyl [(trans-4-{[(2-naphthylsulfonyl)(propyl)amino]methyl}cyclohexyl)methyl]-carbamate], the half-maximal inhibitory concentration (IC50) in experiment [1] is 8710 nM; in experiment [2] it was greater than 20000 nM.

As to `CC(C)(C)OC(=O)NC[C@H]1CC[C@H](CN(CC(F)(F)F)S(=O)(=O)c2ccc3ccccc3c2)CC1` [Example 86, tert-Butyl [(trans-4-{[(2-naphthylsulfonyl)(2,2,2-trifluoroethyl)amino]methyl}cyclo-hexyl)methyl]carbamate], the results for the IC50 in experiment [1] and in experiment [2] were 6980 nM and greater than 20000 nM, respectively.

In the case of `COC[C@H](C)OC(=O)NC[C@H]1CC[C@H](CNC(=O)c2cc(-c3ccc(N4CCN(C)CC4)nc3)nc3ccccc23)CC1` (stereo in doubt) [Example 112, (1S)-2-Methoxy-1-methylethyl[(trans-4-{[({2-[6-(4-methylpiperazin-1-yl)pyridin-3-yl]quinolin-4-yl}carbonyl)amino]methyl}cyclohexyl)methyl]carbamate], the IC50 in experiment [1] worked out at 380 nM; in experiment [2], 2710 nM.

As for `CN(C[C@H]1CC[C@H](CNC(=O)OC(C)(C)C)CC1)C(=O)c1cc(-c2ccccc2)nc2ccccc12` [Example 91, tert-Butyl {[trans-4-({methyl[(2-phenylquinolin-4-yl)carbonyl]amino}methyl)cyclo-hexyl]methyl}carbamate], the half-inhibitory concentration (IC50) in experiment [1] turned out to be 2300 nM; in experiment [2], 4820 nM.

For the compound `Cc1nc(-c2ccc(S(=O)(=O)N(C)C[C@H]3CC[C@H](CNC(=O)OC(C)(C)C)CC3)s2)cs1` [Example 89, tert-Butyl ({trans-4-[(methyl {[5-(2-methyl-1,3-thiazol-4-yl)-2-thienyl]sulfonyl}-amino)methyl]cyclohexyl}methyl)carbamate], the IC50 in experiment [1] is 3030 nM; in experiment [2], greater than 20000 nM.

In the case of `Cc1nc(C)c(-c2cc(C(=O)NC[C@H]3CC[C@H](CNC(=O)OC(C)(C)C)CC3)c3ccccc3n2)s1` [Example 25, tert-Butyl ({trans-4-[({[2-(2,4-dimethyl-1,3-thiazol-5-yl)quinolin-4-yl]carbonyl}amino)-methyl]cyclohexyl}methyl)carbamate], the IC50 in experiment [1] is 140 nM; in experiment [2] it was 1680 nM.

For the compound `CCOC(=O)NC[C@H]1CC[C@H](CNC(=O)c2cc(-c3ccncc3)nc3ccccc23)CC1` [Example 60, Ethyl {[trans-4-({[(2-pyridin-4-ylquinolin-4-yl)carbonyl]amino}methyl)cyclo-hexyl]methyl}carbamate], the concentration for half-maximal inhibition (IC50) in experiment [1] came out at 1820 nM; in experiment [2], 3170 nM.

Turning to `CC(C)(C)OC(=O)NC[C@H]1CC[C@H](CNC(=O)c2cc(-c3ccc(S(N)(=O)=O)cc3)nc3ccccc23)CC1` [Example 135, tert-Butyl [(trans-4-{[({2-[4-(aminosulfonyl)phenyl]-quinolin-4-yl}carbonyl)amino]-methyl}-cyclohexyl)methyl]-carbamate], the results for the IC50 in experiment [1] and in experiment [2] were 80 nM and 380 nM, respectively.

In the case of `CC(C)(C)OC(=O)NC[C@H]1CC[C@H](CN(CC2CCOCC2)S(=O)(=O)c2ccc3ccccc3c2)CC1` [Example 82, tert-Butyl [(trans-4-{[(2-naphthylsulfonyl)(tetrahydro-2H-pyran-4-ylmethyl)amino]-methyl}cyclohexyl)methyl]carbamate], the half-maximal inhibitory concentration (IC50) was 3170 nM in experiment [1] and greater than 20000 nM in experiment [2].

For `CC(=O)c1ccc(-c2cc(C(=O)NC[C@H]3CC[C@H](CNC(=O)OC(C)(C)C)CC3)c3ccccc3n2)s1` [Example 13, tert-Butyl ({trans-4-[({[2-(5-acetyl-2-thienyl)quinolin-4-yl]carbonyl}amino)methyl]-cyclohexyl}methyl)carbamate], the IC50 turned out to be 160 nM in experiment [1] and 450 nM in experiment [2].

As for `CC(C)(C)OC(=O)NC[C@H]1CC[C@H](CNS(=O)(=O)c2ccc(Br)c(Br)c2)CC1` [Example 64, tert-Butyl {[trans-4-({[(3,4-dibromophenyl)sulfonyl]amino}methyl)cyclohexyl]-methyl}carbamate], the IC50 was 3720 nM in experiment [1] and greater than 20000 nM in experiment [2].

Consider `CN1CCN(c2ccc(-c3cc(C(=O)N[C@H]4CC[C@H](CNC(=O)OC(C)(C)C)CC4)c4ccccc4n3)cn2)CC1` [Example 204, tert-Butyl ({trans-4-[({2-[6-(4-methylpiperazin-1-yl)pyridin-3-yl]quinolin-4-yl}carbonyl)amino]cyclohexyl}methyl)carbamate], for which the half-inhibitory concentration (IC50) worked out at 380 nM in experiment [1] and 3800 nM in experiment [2].

`CC(C)(C)OC(=O)NC[C@H]1CC[C@H](CNC(=O)c2cc(-c3ccc(N4CCOCC4)nc3)nc3ccccc23)CC1` [Example 145, tert-Butyl({trans-4-[({[2-(6-morpholin-4-ylpyridin-3-yl)-quinolin-4-yl]carbonyl}amino)-methyl]cyclohexyl}methyl)carbamate]: the IC50 stood at 60 nM in experiment [1] and 280 nM in experiment [2].

Regarding `CN1CCN(c2ccc(-c3cc(C(=O)NC[C@H]4CC[C@H](CNC(=O)OCCF)CC4)c4ccccc4n3)cn2)CC1` [Example 118, 2-Fluoroethyl[(trans-4-{[({2-[6-(4-methylpiperazin-1-yl)pyridin-3-yl]quinolin-4-yl}carbonyl)amino]methyl}cyclohexyl)methyl]carbamate], the half-maximal inhibitory concentration (IC50) in experiment [1] was found to be 650 nM; in experiment [2] it was 1640 nM.
